Experimental data reported in the NIST ThermoML archive (doi:10.1021/acs.jced.5b00849).
Values joined by “and” are separate entries in the source; they are usually repeats but may differ in a detail not shown here. Equal entries are not always repeated.

How the values were obtained:
[1] = Liquid, Ebulliometric method (Recirculating still)
[2] = refractive index (Na D-line) (dimensionless); conditions: 101 kPa, Liquid, Standard Abbe refractometry
[3] = Boiling temperature at pressure P; conditions: Liquid, Ebulliometric method (Recirculating still)
[4] = refractive index (Na D-line) (dimensionless); xn = mol fraction of the nth substance listed; conditions: 101 kPa, Liquid, Standard Abbe refractometry

CC1CCC(=O)O1 (stereo not given) [γ-valerolactone]
Conditions | refractive index | vapor or sublimation pressure
[1], 347.1 K | – | 0.67 kPa
[1], 356 K | – | 1.33 kPa
[1], 370.4 K | – | 2.67 kPa
[1], 384.5 K | – | 5.07 kPa
[1], 401.4 K | – | 10.1 kPa and 10.13 kPa
[1], 416.4 K | – | 17.33 kPa
[1], 426.5 K | – | 24 kPa
[1], 435.3 K | – | 31.6 kPa
[1], 442.7 K | – | 39.46 kPa
[1], 451.5 K | – | 50.6 kPa and 50.66 kPa
[1], 459.2 K | – | 62.26 kPa
[1], 465.3 K | – | 73.06 kPa
[1], 469 K | – | 80.53 kPa
[1], 477.8 K | – | 101.19 kPa
[1], 480.2 K | – | 101.33 kPa
[2], 293.2 K | 1.4339 | –
[2], 298.2 K | 1.4316 | –

O [water]
Conditions | refractive index, 293.2 K | refractive index, 298.2 K | vapor or sublimation pressure, 319.6 K [kPa] | vapor or sublimation pressure, 354.8 K [kPa] | vapor or sublimation pressure, 373.2 K [kPa]
[1] | – | – | 10.1 | 50.6 | 101.33
[2] | 1.3332 | 1.3327 | – | – | –

CO [methanol]
[3]
Conditions | Boiling temperature at pressure P [°C]
40 kPa | 42.6
46.66 kPa | 46
58.8 kPa | 51.2
67.59 kPa | 54.4
76.13 kPa | 57.5

O [water] + CC1CCC(=O)O1
[4], x2 = 0
Conditions | refractive index
293.2 K | 1.3332
298.2 K | 1.3327

CC1CCC(=O)O1 (stereo not given) [γ-valerolactone] + O
refractive index, [4]
Conditions | 293.2 K | 298.2 K
x1 = 0.0158 | 1.342 | 1.3411
x1 = 0.0318 | 1.3505 | 1.3499
x1 = 0.0532 | 1.3591 | 1.3585
x1 = 0.0789 | 1.3682 | 1.3671
x1 = 0.1066 | 1.3761 | 1.3751
x1 = 0.1405 | 1.3837 | 1.3826
x1 = 0.1855 | 1.3913 | 1.39
x1 = 0.2295 | 1.3987 | 1.397
x1 = 0.2964 | 1.4062 | 1.4046
x1 = 0.3833 | 1.4135 | 1.4119
x1 = 0.5097 | 1.4204 | 1.4186
x1 = 0.7092 | 1.4273 | 1.4259
x1 = 1 | 1.4339 | 1.4316
